Measurements: the supplement of paper PMC5908809

Legend:
[1] = test system: normal NK cells expanded with K562-aAPC; experiment: drug sensitivity score (DSS) (DSS units); higher = more sensitive; extreme values may be limits of the assay; details: 72 h; IL-2 2.5 ng/mL
Experimental: (§1)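 Drug sensitivity and resistance testing on K562-aAPC-expanded normal NK cells: 5 concentrations (10-fold steps over a 10,000-fold range), 72 h at 37 °C, viability by CellTiter-Glo normalised to DMSO and benzethonium chloride controls; DSS from the fitted curve.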

[2] = test system: normal NK cells expanded with K562-aAPC; experiment: percent inhibition of viability; higher = more inhibition; details: 72 h, IL-2 2.5 ng/mL
Experimental: as §1

SNK-6 (IL-2 2.5 ng/mL) [3] = experiment: as above; details: 72 h
NK-YS (IL-2 2.5 ng/mL) [4] = experiment: as above; details: 72 h
NK-92 (IL-2 2.5 ng/mL) [5] = experiment: as above; details: 72 h
KHYG-1 (IL-2 2.5 ng/mL) [6] = experiment: as above; details: 72 h
[7] = test system: normal primary NK cells, pool 1 (3 donors) (IL-2 2.5 ng/mL); experiment: as above; details: 72 h
[8] = test system: normal primary NK cells, pool 3 (3 donors) (IL-2 2.5 ng/mL); experiment: as above; details: 72 h
[9] = test system: normal primary NK cells, pool 1 (3 donors), resting (IL-2 0 ng/mL); experiment: as above; details: 72 h
KAI3 (IL-2 2.5 ng/mL) [10] = experiment: as above; details: 72 h
[11] = test system: normal primary NK cells, pool 2 (3 donors) (IL-2 2.5 ng/mL); experiment: as above; details: 72 h
DERL-7 (IL-2 2.5 ng/mL) [12] = experiment: as above; details: 72 h
IMC-1 (IL-2 20 ng/mL) [13] = experiment: as above; details: 72 h
NKL (IL-2 2.5 ng/mL) [14] = experiment: as above; details: 72 h
YT (IL-2 2.5 ng/mL) [15] = experiment: as above; details: 72 h
SNK-6 (IL-2 2.5 ng/mL) [16] = experiment: drug sensitivity score (DSS) (DSS units); higher = more sensitive; extreme values may be limits of the assay; details: 72 h
NK-YS (IL-2 2.5 ng/mL) [17] = experiment: as above; details: 72 h
NK-92 (IL-2 2.5 ng/mL) [18] = experiment: as above; details: 72 h
KHYG-1 (IL-2 2.5 ng/mL) [19] = experiment: as above; details: 72 h
[20] = test system: normal primary NK cells, pool 1 (3 donors) (IL-2 2.5 ng/mL); experiment: as above; details: 72 h
[21] = test system: normal primary NK cells, pool 3 (3 donors) (IL-2 2.5 ng/mL); experiment: as above; details: 72 h
[22] = test system: normal primary NK cells, pool 1 (3 donors), resting (IL-2 0 ng/mL); experiment: as above; details: 72 h
KAI3 (IL-2 2.5 ng/mL) [23] = experiment: as above; details: 72 h
[24] = test system: normal primary NK cells, pool 2 (3 donors) (IL-2 2.5 ng/mL); experiment: as above; details: 72 h
DERL-7 (IL-2 2.5 ng/mL) [25] = experiment: as above; details: 72 h
IMC-1 (IL-2 20 ng/mL) [26] = experiment: as above; details: 72 h
NKL (IL-2 2.5 ng/mL) [27] = experiment: as above; details: 72 h
YT (IL-2 2.5 ng/mL) [28] = experiment: as above; details: 72 h

COc1cc(O)c2c(c1)/C=C/C[C@H](O)[C@H](O)C(=O)/C=C\C[C@H](C)OC2=O [(5Z)-7-Oxozeaenol] (max concentration tested 10000 nM)
Details | drug sensitivity score
DERL-7 (IL-2 2.5 ng/mL) [25] | 14.1
IMC-1 (IL-2 20 ng/mL) [26] | 2.11
KAI3 (IL-2 2.5 ng/mL) [23] | 12.6
KHYG-1 (IL-2 2.5 ng/mL) [19] | 15.6
NK-92 (IL-2 2.5 ng/mL) [18] | 9.5
NK-YS (IL-2 2.5 ng/mL) [17] | 11
NKL (IL-2 2.5 ng/mL) [27] | 20.5
SNK-6 (IL-2 2.5 ng/mL) [16] | 8.87
YT (IL-2 2.5 ng/mL) [28] | 11.4
[1] | 8.28
[20] | 12.1
[21] | 7.72
[22] | 12
[24] | 8.91

percent inhibition of viability [%]
Details | 1 nM | 10 nM | 100 nM | 1000 nM | 10000 nM
DERL-7 (IL-2 2.5 ng/mL) [12] | -5.8 | 2.14 | 10.7 | 66.3 | 101
IMC-1 (IL-2 20 ng/mL) [13] | -4.21 | -3.28 | -4.71 | -7.11 | 48.9
KAI3 (IL-2 2.5 ng/mL) [10] | 0.25 | 0.75 | 5.8 | 59 | 105
KHYG-1 (IL-2 2.5 ng/mL) [6] | 0.21 | -0.62 | 3.17 | 83.9 | 109
NK-92 (IL-2 2.5 ng/mL) [5] | -20.1 | -30 | -17.5 | 26.2 | 104
NK-YS (IL-2 2.5 ng/mL) [4] | -3.96 | -2.39 | 8.28 | 41.9 | 105
NKL (IL-2 2.5 ng/mL) [14] | -8.24 | 17.5 | 38.5 | 80 | 110
SNK-6 (IL-2 2.5 ng/mL) [3] | -2.4 | -7.72 | -14.8 | 23.5 | 95
YT (IL-2 2.5 ng/mL) [15] | -2.81 | -5.3 | 6.58 | 46.2 | 105
[2] | -4.98 | -3.35 | -1.51 | 18.7 | 94.8
[7] | -6.25 | 6.9 | 22.8 | 45.6 | 98.5
[8] | -13.2 | 9.87 | 4.11 | 13.6 | 98.2
[9] | -25.1 | 10.7 | 9.8 | 54.5 | 92
[11] | -15.9 | 1.06 | 2.6 | 22.8 | 96.8

Cc1cnc(NC(=O)Nc2cc(Br)c(C)cc2OC[C@@H]2CNCCO2)cn1 [Rabusertib] (max concentration tested 1000 nM)
Details | drug sensitivity score
DERL-7 (IL-2 2.5 ng/mL) [25] | 2.31
IMC-1 (IL-2 20 ng/mL) [26] | 0
KAI3 (IL-2 2.5 ng/mL) [23] | 6.43
KHYG-1 (IL-2 2.5 ng/mL) [19] | 8.07
NK-92 (IL-2 2.5 ng/mL) [18] | 7.67
NK-YS (IL-2 2.5 ng/mL) [17] | 4.02
NKL (IL-2 2.5 ng/mL) [27] | 7.11
SNK-6 (IL-2 2.5 ng/mL) [16] | 5.37
YT (IL-2 2.5 ng/mL) [28] | 0
[1] | 5.12
[20] | 0
[21] | 0
[22] | 0
[24] | 0.35

percent inhibition of viability [%]
Details | 0.1 nM | 1 nM | 10 nM | 100 nM | 1000 nM
DERL-7 (IL-2 2.5 ng/mL) [12] | 5.67 | 5.69 | 4.81 | 4.56 | 33.5
IMC-1 (IL-2 20 ng/mL) [13] | -3.74 | -1.84 | 2.04 | 1.67 | 9.87
KAI3 (IL-2 2.5 ng/mL) [10] | -0.28 | -3.83 | 3.9 | 11.6 | 81
KHYG-1 (IL-2 2.5 ng/mL) [6] | 3.66 | 7.68 | 5.93 | 14.9 | 103
NK-92 (IL-2 2.5 ng/mL) [5] | -4.77 | 4.85 | 16 | 18.2 | 86.9
NK-YS (IL-2 2.5 ng/mL) [4] | 1.16 | 1.34 | 0.68 | 3.22 | 65.2
NKL (IL-2 2.5 ng/mL) [14] | -16.6 | 0.3 | -1.09 | 14 | 86.2
SNK-6 (IL-2 2.5 ng/mL) [3] | 11.6 | 6.32 | 2.12 | 11.8 | 62.8
YT (IL-2 2.5 ng/mL) [15] | -0.82 | -0.63 | 1.16 | -2 | 11
[2] | 4.2 | -1.61 | 0.16 | 13.5 | 55.7
[7] | -1.58 | -1.28 | -6.24 | -18 | -4.02
[8] | -20.8 | -8.02 | 3.37 | -3.4 | 8.17
[9] | 5.84 | -6.29 | 4.9 | -19.1 | -1.65
[11] | -8.45 | 5.23 | 3.94 | 0.79 | 15.8
